Results: patent US11572373B2, “Maytansinoid-based drug delivery systems” (LADRX CORPORATION, priority 2017, dated 2023)
Marks after values point to notes of the source that are not given here.

Assay: Stability and release kinetics of maytansinoid-HSA conjugates in buffer solution at pH 4.0 and pH 7.4
Format: physicochemical
Conditions: maytansinoid-HSA conjugate, PBS pH 7.4, 37° C., measured at 100 μM
Experimental: For preparing HSA conjugates of albumin-binding maytansinoids, HSA (200 μM: 361.8 μL, 1078 μM free Cys34; 100 μM: 180.9 μL, 1078 μM free Cys34) was diluted with PBS buffer (4 mM sodium phosphate, 150 mM NaCl, pH 7.4) (200 μM: 678.2 μL; 100 μM: 859.1 μL) and DMSO (200 μM: 130.0 μL; 100 μM: 195.0 μL) and incubated in a heating block at 37° C. for 30 minutes. The albumin-binding maytansinoid was added as a 2 mM stock solution in DMSO (200 μM: 130.0 μL; 100 μM: 65.0 μL) to the preincubated HSA sample to produce a 200 μM or 100 μM solution of maytansinoid-prodrug and 300 μM or 150 μM of free Cys34. The mixture having a pH of 7.4 was allowed to react for 10 min at 37° C. and was then analyzed hourly for 24 hours by RP-HPLC (Phenomenex Aeris WP XB-C18, 3.6 μm, 250×4.6 mm).
For studying the release kinetics at pH 4.0 the mixture was acidified with a mixture of 50 mM sodium acetate buffer pH 3.0 (200 μM: 119.3 μL; 100 μM: 125.2 μL) and 1 M HCl (200 μM: 12.7 μL; 100 μM: 6.8 μL) to reach pH 4.0. The mixture was subsequently analyzed hourly for 24 hours by RP-HPLC (Phenomenex Aeris WP XB-C18, 3.6 μm, 250×4.6 mm).
The following RP-HPLC conditions were used: Phenomenex Aeris WP XB-C18 3.6 μm, 250×4.6 mm; eluent A (100% 20 mM Tris buffer pH 8.0) and eluent B (90:10, MeCN: water) eluting with a gradient of eluent B (25% 0-0.5 min, 25-35% 0.5-2.5 min, 35-85% 2.5-16 min, 85-95% 16-17 min, 95% 17-20 min, 95-25% 20-25 min, 25% 25-30 min, flow rate 1.0 mL/min). Column oven temperature 37° C.; autosampler temperature 37° C.; 20 μL of injection volume.
To quantify the percentage of free drug released, standard curves of the free maytansinoids were prepared at different concentrations (200 μM, 100 μM, 50 μM, 25 μM and 12.5 μM). The area under the curve (AUC) was determined at 250 nm.
With `COc1cc2cc(c1Cl)N(C)C(=O)C[C@H](OC(=O)COc1cccc(/C(C)=N/NC(=O)c3ccc(NC(=O)CCNC(=O)[C@H](CS(=O)(=O)O)NC(=O)CCCCCN4C(=O)C=CC4=O)cc3[N+](=O)[O-])c1)[C@]1(C)O[C@H]1[C@H](C)[C@@H]1C[C@@](O)(NC(=O)O1)[C@H](OC)/C=C/C=C(\C)C2` [Compound 42] the “free maytansinoid after 24 h at pH 7.4” value was 4.8%**.

Same assay, conditions: maytansinoid-HSA conjugate, PBS pH 7.4, 37° C., measured at 200 μM
For `COc1cc2cc(c1Cl)N(C)C(=O)C[C@H](OC(=O)CSc1ccc(/C(C)=N/NC(=O)c3ccc(NC(=O)CCCCCN4C(=O)C=CC4=O)cc3S(=O)(=O)O)cc1)[C@]1(C)O[C@H]1[C@H](C)[C@@H]1C[C@@](O)(NC(=O)O1)[C@H](OC)/C=C/C=C(\C)C2` [Compound 37], the “free maytansinoid after 24 h at pH 7.4” value was 3.9%*.
For `COc1cc2cc(c1Cl)N(C)C(=O)C[C@H](OC(=O)Cc1ccc(/C(C)=N/NC(=O)c3ccc(NC(=O)CCNC(=O)[C@H](CS(=O)(=O)O)NC(=O)CCCCCN4C(=O)C=CC4=O)cc3[N+](=O)[O-])cc1)[C@]1(C)O[C@H]1[C@H](C)[C@@H]1C[C@@](O)(NC(=O)O1)[C@H](OC)/C=C/C=C(\C)C2` [Compound 33], the “free maytansinoid after 24 h at pH 7.4” value was 6.5%*.
In the case of `COc1cc2cc(c1Cl)N(C)C(=O)C[C@H](OC(=O)COc1ccc(/C(C)=N/NC(=O)c3ccc(NC(=O)CCCCCN4C(=O)C=CC4=O)cc3S(=O)(=O)O)cc1)[C@]1(C)O[C@H]1[C@H](C)[C@@H]1C[C@@](O)(NC(=O)O1)[C@H](OC)/C=C/C=C(\C)C2` [Compound 36], the “free maytansinoid after 24 h at pH 7.4” value is reported as 4.7%*.
In the case of `COc1cc2cc(c1Cl)N(C)C(=O)C[C@H](OC(=O)Cc1ccc(/C(C)=N/NC(=O)c3ccc(NC(=O)CCCCCN4C(=O)C=CC4=O)cc3S(=O)(=O)O)cc1)[C@]1(C)O[C@H]1[C@H](C)[C@@H]1C[C@@](O)(NC(=O)O1)[C@H](OC)/C=C/C=C(\C)C2` [Compound 32], the “free maytansinoid after 24 h at pH 7.4” value is reported as 9.5%*.

Assay: In vitro cytotoxicity in different cell lines using the CellTiter-Blue Cell Viability Assay
Format: cell-based, human
Conditions: Homo sapiens, 96 h, read-out: Geomean IC50
Work on `COc1cc2cc(c1Cl)N(C)C(=O)C[C@H](OC(=O)C1CCCN1C(=O)c1ccc(C(C)=O)cc1)[C@]1(C)O[C@H]1[C@H](C)[C@@H]1C[C@@](O)(NC(=O)O1)[C@H](OC)/C=C/C=C(\C)C2` (stereo partly shown) [Compound 20] yielded an IC50 of 0.94 nM.
With `COc1cc2cc(c1Cl)N(C)C(=O)C[C@H](OC(=O)C1CCCN1C(=O)Nc1ccc(C(C)=O)cc1)[C@]1(C)O[C@H]1[C@H](C)[C@@H]1C[C@@](O)(NC(=O)O1)[C@H](OC)/C=C/C=C(\C)C2` (stereo partly shown) [Compound 23] the IC50 was 26.8 nM.
Molecule `COc1cc2cc(c1Cl)N(C)C(=O)C[C@H](OC(=O)CSc1ccc(C(C)=O)cc1[N+](=O)[O-])[C@]1(C)O[C@H]1[C@H](C)[C@@H]1C[C@@](O)(NC(=O)O1)[C@H](OC)/C=C/C=C(\C)C2` [Compound 14] has an IC50 of 1.54 nM.
Molecule `COc1cc2cc(c1Cl)N(C)C(=O)C[C@H](OC(=O)Nc1ccc(C(C)=O)cc1)[C@]1(C)O[C@H]1[C@H](C)[C@@H]1C[C@@](O)(NC(=O)O1)[C@H](OC)/C=C/C=C(\C)C2` [Compound 28] has an IC50 of 10.6 nM.
In the case of `COc1cc2cc(c1Cl)N(C)C(=O)C[C@H](OC(=O)CN(C)C(=O)c1ccc(C(C)=O)nc1)[C@]1(C)O[C@H]1[C@H](C)[C@@H]1C[C@@](O)(NC(=O)O1)[C@H](OC)/C=C/C=C(\C)C2` [Compound 26], the IC50 is reported as 18.5 nM.
In the case of `COc1cc2cc(c1Cl)N(C)C(=O)C[C@H](OC(=O)CN(C)c1ccc(C(C)=O)cc1)[C@]1(C)O[C@H]1[C@H](C)[C@@H]1C[C@@](O)(NC(=O)O1)[C@H](OC)/C=C/C=C(\C)C2` [Compound 10], the IC50 is reported as 0.3 nM.
Molecule `COc1cc2cc(c1Cl)N(C)C(=O)C[C@H](OC(=O)Cc1ccc(C(C)=O)c([N+](=O)[O-])c1)[C@]1(C)O[C@H]1[C@H](C)[C@@H]1C[C@@](O)(NC(=O)O1)[C@H](OC)/C=C/C=C(\C)C2` [Compound 7] has an IC50 of 0.89 nM.
`COc1cc2cc(c1Cl)N(C)C(=O)C[C@H](OC(=O)CCc1ccc(C(C)=O)cc1)[C@]1(C)O[C@H]1[C@H](C)[C@@H]1C[C@@](O)(NC(=O)O1)[C@H](OC)/C=C/C=C(\C)C2` [Compound 9] showed an IC50 of 0.19 nM.
In the case of `COc1cc2cc(c1Cl)N(C)C(=O)C[C@H](OC(=O)CSc1ccc(C(C)=O)cc1C)[C@]1(C)O[C@H]1[C@H](C)[C@@H]1C[C@@](O)(NC(=O)O1)[C@H](OC)/C=C/C=C(\C)C2` [Compound 12], the IC50 is reported as 0.76 nM.
With `COc1cc2cc(c1Cl)N(C)C(=O)C[C@H](OC(=O)[C@H](C)N(C)C(=O)c1ccc(C(C)=O)cc1)[C@]1(C)O[C@H]1[C@H](C)[C@@H]1C[C@@](O)(NC(=O)O1)[C@H](OC)/C=C/C=C(\C)C2` [Compound 24] the IC50 was 9.04 nM.
In the case of `COc1cc2cc(c1Cl)N(C)C(=O)C[C@H](OC(=O)[C@H](C)N(C)C(=O)CCC(C)=O)[C@]1(C)O[C@H]1[C@H](C)[C@@H]1C[C@@](O)(NC(=O)O1)[C@H](OC)/C=C/C=C(\C)C2` [Compound 44], the IC50 is reported as 7.21 nM.
`COc1cc2cc(c1Cl)N(C)C(=O)C[C@H](OC(=O)CCNC(=O)c1ccc(C(C)=O)cc1)[C@]1(C)O[C@H]1[C@H](C)[C@@H]1C[C@@](O)(NC(=O)O1)[C@H](OC)/C=C/C=C(\C)C2` [Compound 27] gave an IC50 of 11.7 nM.
`COc1cc2cc(c1Cl)N(C)C(=O)C[C@H](OC(=O)CSc1ccc(C(C)=O)cc1Cl)[C@]1(C)O[C@H]1[C@H](C)[C@@H]1C[C@@](O)(NC(=O)O1)[C@H](OC)/C=C/C=C(\C)C2` [Compound 15] showed an IC50 of 0.18 nM.
`COc1cc2cc(c1Cl)N(C)C(=O)C[C@H](OC(=O)Cc1ccc(C(C)=O)c(F)c1)[C@]1(C)O[C@H]1[C@H](C)[C@@H]1C[C@@](O)(NC(=O)O1)[C@H](OC)/C=C/C=C(\C)C2` [Compound 5] gave an IC50 of 0.9 nM.
`COc1cc2cc(c1Cl)N(C)C(=O)C[C@H](OC(=O)C(C)(C)Oc1ccc(C(C)=O)cc1)[C@]1(C)O[C@H]1[C@H](C)[C@@H]1C[C@@](O)(NC(=O)O1)[C@H](OC)/C=C/C=C(\C)C2` [Compound 19] showed an IC50 of 1.12 nM.
`COc1cc2cc(c1Cl)N(C)C(=O)C[C@H](OC(=O)CCCc1ccc(C(C)=O)cc1)[C@]1(C)O[C@H]1[C@H](C)[C@@H]1C[C@@](O)(NC(=O)O1)[C@H](OC)/C=C/C=C(\C)C2` [Compound 8] gave an IC50 of 0.1 nM.
Work on `CCN(CC(=O)O[C@H]1CC(=O)N(C)c2cc(cc(OC)c2Cl)C/C(C)=C/C=C/[C@@H](OC)[C@@]2(O)C[C@H](OC(=O)N2)[C@@H](C)[C@@H]2O[C@@]12C)C(=O)c1ccc(C(C)=O)cc1` [Compound 22] yielded an IC50 of 25 nM.
Molecule `COc1cc2cc(c1Cl)N(C)C(=O)C[C@H](OC(=O)CSc1ccc(C(C)=O)cc1)[C@]1(C)O[C@H]1[C@H](C)[C@@H]1C[C@@](O)(NC(=O)O1)[C@H](OC)/C=C/C=C(\C)C2` [Compound 11] has an IC50 of 0.21 nM.
Molecule `COc1cc2cc(c1Cl)N(C)C(=O)C[C@H](OC(=O)Cc1ccc(C(C)=O)cc1[N+](=O)[O-])[C@]1(C)O[C@H]1[C@H](C)[C@@H]1C[C@@](O)(NC(=O)O1)[C@H](OC)/C=C/C=C(\C)C2` [Compound 6] has an IC50 of 2.14 nM.
With `COc1cc2cc(c1Cl)N(C)C(=O)C[C@H](OC(=O)CNC(=O)c1ccc(C(C)=O)cc1)[C@]1(C)O[C@H]1[C@H](C)[C@@H]1C[C@@](O)(NC(=O)O1)[C@H](OC)/C=C/C=C(\C)C2` [Compound 21] the IC50 was 1.67 nM.
`COc1cc2cc(c1Cl)N(C)C(=O)C[C@H](OC(=O)CSc1ccc(C(C)=O)cc1C(F)(F)F)[C@]1(C)O[C@H]1[C@H](C)[C@@H]1C[C@@](O)(NC(=O)O1)[C@H](OC)/C=C/C=C(\C)C2` [Compound 13] showed an IC50 of 0.88 nM.
With `COc1cc2cc(c1Cl)N(C)C(=O)C[C@H](OC(=O)CSc1ccc(C(C)=O)cc1Br)[C@]1(C)O[C@H]1[C@H](C)[C@@H]1C[C@@](O)(NC(=O)O1)[C@H](OC)/C=C/C=C(\C)C2` [Compound 16] the IC50 was 0.32 nM.
With `COc1cc2cc(c1Cl)N(C)C(=O)C[C@H](OC(=O)CN(C)C(=O)c1ccc(C(C)=O)cc1)[C@]1(C)O[C@H]1[C@H](C)[C@@H]1C[C@@](O)(NC(=O)O1)[C@H](OC)/C=C/C=C(\C)C2` [Compound 25] the IC50 was 8.47 nM.
Work on `COc1cc(C(C)=O)ccc1SCC(=O)O[C@H]1CC(=O)N(C)c2cc(cc(OC)c2Cl)C/C(C)=C/C=C/[C@@H](OC)[C@@]2(O)C[C@H](OC(=O)N2)[C@@H](C)[C@@H]2O[C@@]12C` [Compound 17] yielded an IC50 of 0.45 nM.
For `COc1cc2cc(c1Cl)N(C)C(=O)C[C@H](OC(=O)COc1ccc(C(C)=O)cc1)[C@]1(C)O[C@H]1[C@H](C)[C@@H]1C[C@@](O)(NC(=O)O1)[C@H](OC)/C=C/C=C(\C)C2` [Compound 18], the IC50 was 0.13 nM.

Same assay, conditions: Homo sapiens; geometric mean over the n cell lines tested, 96 h treatment, CellTiter-Blue; read-out: Geomean IC50
With `COc1cc2cc(c1Cl)N(C)C(=O)CC(O)C1(C)OC1C(C)C1CC(O)(NC(=O)O1)C(OC)/C=C/C=C(\C)C2` (stereo not shown) [Maytansinol, reference compound] the IC50 was 86 nM.
